Measurements taken from patent US20020183290A1, “Adrenergic receptor antagonists selective for both alpha1A-and alpha1D-subtypes and uses therefor” (Recordati S.A., Chemical and Pharmaceutical Company, priority 2001, published 2002).
Read-outs that look alike come from different tables or passages of the source.

Tested on: conscious rats with partial urethral obstruction
Test: Cystometry in conscious rats obstructed by partial urethra ligature (unstable-bladder contractions)
Type: in vivo, rat
Conditions: for inhibition in vivo at 0.3 mg/kg / inhibition in vivo at 1 mg/kg / inhibition in vivo at 0.1 mg/kg: 2 min; for Amplitude of non-effective micturition contractions, After Treat. / Frequency (number) of non-effective micturition contractions, After Treat.: after treatment; for Activity as inhibitors of unstable-bladder contractions (in words): obstructed conscious rats, summary of Tables 1 and 2
Source text: A useful animal model system for measuring such pharmacological activity is, without limitation, cystometry in conscious rats with partial bladder-neck obstruction. […] This model is reported in the literature as related to LUTS occurring in patients having obstructive urethral syndromes (Michel, 2000, Drugs of Today. 386 (Supp. B2): 3-6)
In order to obtain a partial obstruction of the urethra, the method previously reported by Malgren (Nalgren et al., 1987, J. Urol. 137:1291-1294; 1988, Neurourol. Urodyn. 6:371), was followed with minor modifications (Guarneri et al., 1991, Pharmacol. Res. 24:263).
Female rats of the Sprague-Dawley strain [Crl:CD(SD)BR, from Charles River Italia, Calco, Como, Italy] weighing 225-275 g were used. The animals were maintained in constant temperature and humidity conditions, on a forced 12-hour light-dark cycle and with food and water ad libitum for at least one week before the experiment.
After being anaesthetized with 3 ml/kg i.p. equitensin (pentobarbital 1.215 g, chloral hydrate 5.312 g, magnesium sulphate 2.657 g, ethanol 12.5 ml, propylene glycol 49.5 ml, distilled water to 125 ml of final volume), the rats were placed in a supine position and the bladder and urethra were exposed via an incision in the shaven abdomens and gently pulling away the muscle portion. The urethra was cannulated with a polyethylene tube with an outside diameter of 1.22 mm, and the urinary bladder was then emptied and, via the cannula introduced through the urethra, filled with physiological saline. A silk (Ethicon 3/0) ligature was placed around the urethra with the cannula inside and the intraurethral cannula was then removed. The abdominal incision was sutured and, immediately after the operative procedure, antibiotic medication (penicillin G 200 000 I.U./kg i.p. and streptomycin 260 mg/kg i.p.) was performed.
Three weeks after the procedure for partially obstructing the urethra, the animals were prepared for cystometry by surgical insertion into the bladder of a catheter, through which the bladder was gradually filled.
The rats, anaesthetised with equitensin 3 ml/kg i.p., were placed in a supine position and, via an incision of about 10 mm in the abdominal wall, the urinary bladder was exposed and gently freed from surrounding tissues.
The urinary bladder was emptied manually and cannulated, via a small incision at the bladder top, with a polyethylene cannula (type PE-50, 0.58 mm I.D. ×0.96 mm O.D.), which was permanently secured to the bladder with silk thread.
The cannula was exposed through a subcutaneous tunnel in the retroscapular area, where it was fastened with a plastic adapter, in order to avoid the risk of removal by the animal. After washing the urinary bladder with physiological saline, the catheter was sealed using a small flame and the abdominal incision was sutured.
To allow evaluation of the effect of a test compound after intravenous administration, the jugular vein was cannulated with a polyethylene cannula (type PE-50, 0.58 mm I.D.×0.96 mm O.D.) filled with heparinised physiological saline. As for the bladder catheter, this cannula, too, was exteriorised, secured and sealed in the retroscapular area.
Two days after the operation, the rats, fasted overnight, were placed in Bollman's cages or in Bollman's cages modified so as to have an opening in the bottom to allow collection of urinated fluid.
After an adaptation period of 20 minutes, the free end of the bladder cannula was connected to a pressure transducer and a special apparatus which allowed infusion into the urinary bladder of physiological saline at 37° C. at a constant rate of 10 ml/hour. Intravesical pressure changes caused by bladder filling were recorded by the pressure transducer which was connected to a recording polygraph.
From the cystometrograms, the frequency and mean amplitude of spontaneous bladder contractions not inducing micturition, termed “unstable-bladder contractions” (UBC), within 2 minutes prior to micturition were evaluated. […]

[1] = obstructed rat, 0.3 mg/kg, 2 minutes before micturition, read-out: % inhibition of frequency of non-effective micturition contractions
[2] = obstructed rat, 2 minutes before micturition, read-out: % inhibition of frequency of non-effective micturition contractions
[3] = Rattus norvegicus, read-out: % inhibition of amplitude of non-effective micturition contractions
[4] = Rattus norvegicus, read-out: % inhibition of frequency of non-effective micturition contractions

SMILES	inhibition in vivo at 0.3 mg/kg [1] [%]	inhibition in vivo at 1 mg/kg [2] [%]	inhibition in vivo at 0.1 mg/kg (obstructed rat, 0.1 mg/kg, 2 minutes before micturition, read-out: % inhibition of amplitude of non-effective micturition contractions) [%]	inhibition in vivo at 0.1 mg/kg (obstructed rat, 0.1 mg/kg, 2 minutes before micturition, read-out: % inhibition of frequency of non-effective micturition contractions) [%]	inhibition in vivo at 0.3 mg/kg (obstructed rat, 0.3 mg/kg, 2 minutes before micturition, read-out: % inhibition of amplitude of non-effective micturition contractions) [%]	inhibition in vivo at 1 mg/kg (obstructed rat, 2 minutes before micturition, read-out: % inhibition of amplitude of non-effective micturition contractions) [%]	Amplitude of non-effective micturition contractions, After Treat. (0.1 mg/kg) [mmHg]	Frequency (number) of non-effective micturition contractions, After Treat. (0.1 mg/kg)	Amplitude of non-effective micturition contractions, After Treat. (0.3 mg/kg) [mmHg]	Frequency (number) of non-effective micturition contractions, After Treat. (0.3 mg/kg)	Amplitude of non-effective micturition contractions, After Treat. (1.0 mg/kg) [mmHg]	Frequency (number) of non-effective micturition contractions, After Treat. (1.0 mg/kg)	Activity as inhibitors of unstable-bladder contractions (in words)	inhibition in vivo at 0.1 mg/kg [3] [%]	inhibition in vivo at 0.3 mg/kg [3] [%]	inhibition in vivo at 0.1 mg/kg [4] [%]	inhibition in vivo at 0.3 mg/kg [4] [%]
COc1ccccc1N1CCN(CCCNC(=O)c2csc3c(=O)cc(C(F)(F)F)oc23)CC1 [Compound A, N-{3-[4-(2-methoxyphenyl)-1-piperazinyl]propyl}-7-keto-5-trifluoromethyl-7H-thieno [3,2-b]pyran-3-carboxamide]	44	67	–	–	–	–	–	–	–	–	–	–	–	–	–	–	–
COc1cc2nc(N3CCN(C(=O)C4CCCO4)CC3)nc(N)c2cc1OC (stereo not drawn) [Terazosin, terazosin]	65	93	31	30	64	86	6.6 ± 0.7	4.0 ± 0.3	3.7 ± 1.1	1.9 ± 0.5	0.8 ± 0.8	0.3 ± 0.3	marked and dose-dependent reduction	–	–	–	–
COc1cc2nc(N3CCN(C(=O)c4ccco4)CC3)nc(N)c2cc1OC [Prazosin, prazosin]	–	–	–	–	–	–	3.1 ± 0.9	2.8 ± 0.8	2.1 ± 1.5	2.3 ± 1.1	–	–	marked and dose-dependent reduction	63	87	48	74
